Columns and labels:
Assay in all cases: KINOMEscan competition binding
Conditions in all cases: compound 10.0 µM
RIPK2 (human) = RIPK2 (human) (UniProt O43353)
MST1R (human) = MST1R (human) (UniProt Q04912)
MAPK11 (human) = MAPK11 (human) (UniProt Q15759)
EPHA1 (human) = EPHA1 (human) (UniProt P21709)
PDPK1 (human) = PDPK1 (human) (UniProt O15530)
RPS6KA3 KD1 (human) = RPS6KA3 KD1 (human) (UniProt P51812)
PKN1 (human) = PKN1 (human) (UniProt Q16512)
WEE2 (human) = WEE2 (human) (UniProt P0C1S8)
MAP2K6 (human) = MAP2K6 (human) (UniProt P52564)
Chain of MAP2K6 (human) (P52564 whole entry, looked up): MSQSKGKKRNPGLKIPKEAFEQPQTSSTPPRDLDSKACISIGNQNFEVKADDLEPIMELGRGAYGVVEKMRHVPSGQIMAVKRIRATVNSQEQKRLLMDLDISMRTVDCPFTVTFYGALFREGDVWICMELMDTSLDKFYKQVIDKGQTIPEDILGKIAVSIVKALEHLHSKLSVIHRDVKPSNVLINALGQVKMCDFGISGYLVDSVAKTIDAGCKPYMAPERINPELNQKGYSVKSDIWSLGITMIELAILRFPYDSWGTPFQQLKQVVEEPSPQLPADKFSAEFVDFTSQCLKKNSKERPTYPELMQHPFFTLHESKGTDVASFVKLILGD

EPHB6 (human) = EPHB6 (human) (UniProt O15197)
MAP3K1 (human) = MAP3K1 (human) (UniProt Q13233)
PIK3CA (human) = PIK3CA (human) (UniProt P42336)
Chain of PIK3CA (human) (P42336 whole entry, looked up): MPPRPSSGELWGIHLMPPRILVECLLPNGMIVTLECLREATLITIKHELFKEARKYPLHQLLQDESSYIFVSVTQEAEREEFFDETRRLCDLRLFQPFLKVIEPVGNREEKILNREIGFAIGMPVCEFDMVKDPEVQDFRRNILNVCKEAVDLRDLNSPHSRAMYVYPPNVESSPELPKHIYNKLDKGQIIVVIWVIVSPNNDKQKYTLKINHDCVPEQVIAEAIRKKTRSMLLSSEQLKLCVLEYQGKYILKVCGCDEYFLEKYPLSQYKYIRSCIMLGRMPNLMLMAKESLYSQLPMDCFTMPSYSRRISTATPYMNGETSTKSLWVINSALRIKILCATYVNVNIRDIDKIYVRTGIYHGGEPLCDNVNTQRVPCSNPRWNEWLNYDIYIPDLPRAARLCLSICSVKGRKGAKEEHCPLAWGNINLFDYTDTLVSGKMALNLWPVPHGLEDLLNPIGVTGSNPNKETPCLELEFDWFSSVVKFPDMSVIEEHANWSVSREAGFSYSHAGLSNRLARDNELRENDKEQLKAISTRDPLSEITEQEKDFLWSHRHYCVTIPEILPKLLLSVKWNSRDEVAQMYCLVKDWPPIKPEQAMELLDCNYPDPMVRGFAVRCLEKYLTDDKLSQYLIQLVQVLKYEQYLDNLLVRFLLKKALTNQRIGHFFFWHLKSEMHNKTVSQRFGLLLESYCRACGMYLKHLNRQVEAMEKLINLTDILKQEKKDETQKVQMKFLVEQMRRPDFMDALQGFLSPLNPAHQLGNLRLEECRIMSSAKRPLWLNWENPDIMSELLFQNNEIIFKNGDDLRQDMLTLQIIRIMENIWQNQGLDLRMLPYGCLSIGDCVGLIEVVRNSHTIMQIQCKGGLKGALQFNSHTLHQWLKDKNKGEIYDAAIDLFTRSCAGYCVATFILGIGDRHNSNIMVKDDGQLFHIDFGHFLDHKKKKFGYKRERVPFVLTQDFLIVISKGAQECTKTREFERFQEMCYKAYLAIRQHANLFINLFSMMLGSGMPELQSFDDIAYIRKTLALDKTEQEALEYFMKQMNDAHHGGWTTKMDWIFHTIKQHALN

RAF1 (human) = RAF1 (human) (UniProt P04049)
PHKG2 (human) = PHKG2 (human) (UniProt P15735)
PRKX (human) = PRKX (human) (UniProt P51817)
Chain of PRKX (human) (P51817 whole entry, looked up): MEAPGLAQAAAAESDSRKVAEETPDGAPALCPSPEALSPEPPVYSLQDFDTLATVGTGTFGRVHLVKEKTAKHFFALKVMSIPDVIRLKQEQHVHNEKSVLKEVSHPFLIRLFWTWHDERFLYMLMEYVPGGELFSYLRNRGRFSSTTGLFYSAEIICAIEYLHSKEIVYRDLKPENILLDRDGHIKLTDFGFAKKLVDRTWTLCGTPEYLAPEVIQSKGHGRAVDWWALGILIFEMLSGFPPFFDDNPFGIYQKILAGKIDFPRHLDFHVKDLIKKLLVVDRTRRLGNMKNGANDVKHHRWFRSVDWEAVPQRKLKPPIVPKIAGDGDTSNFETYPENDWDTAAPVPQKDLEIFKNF

MUSK (human) = MUSK (human) (UniProt O15146)
DYRK1B (human) = DYRK1B (human) (UniProt Q9Y463)
CDC42BPB (human) = CDC42BPB (human) (UniProt Q9Y5S2)
ULK3 (human) = ULK3 (human) (UniProt Q6PHR2)
AKT3 (human) = AKT3 (human) (UniProt Q9Y243)
RPS6KA5 KD2 (human) = RPS6KA5 KD2 (human) (UniProt O75582)
CDK11B (human) = CDK11B (human) (UniProt P21127)
CDK13 (human) = CDK13 (human) (UniProt Q14004)
ACVR1B (human) = ACVR1B (human) (UniProt P36896)
Chain of ACVR1B (human) (P36896 whole entry, looked up): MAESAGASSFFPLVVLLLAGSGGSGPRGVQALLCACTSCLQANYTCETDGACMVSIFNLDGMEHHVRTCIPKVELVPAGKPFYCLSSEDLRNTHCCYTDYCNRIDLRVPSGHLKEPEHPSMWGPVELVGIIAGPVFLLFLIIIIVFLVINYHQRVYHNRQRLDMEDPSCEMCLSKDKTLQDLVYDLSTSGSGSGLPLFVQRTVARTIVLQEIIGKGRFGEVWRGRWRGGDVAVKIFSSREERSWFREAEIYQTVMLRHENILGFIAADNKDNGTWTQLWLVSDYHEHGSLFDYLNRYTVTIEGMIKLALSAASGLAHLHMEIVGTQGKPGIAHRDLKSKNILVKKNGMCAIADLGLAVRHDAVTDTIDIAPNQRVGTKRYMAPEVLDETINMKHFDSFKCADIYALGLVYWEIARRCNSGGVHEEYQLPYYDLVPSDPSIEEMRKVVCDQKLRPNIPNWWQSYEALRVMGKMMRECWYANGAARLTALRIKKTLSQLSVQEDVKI

[1] = test system: PIK3CA (human), P42336 [E542K]
Chain of PIK3CA (human), P42336 [E542K] (P42336 whole entry E542K, looked up): as the sequence (P42336 whole entry, looked up) above, with E542K counted along it

MAP2K3 (human) = MAP2K3 (human) (UniProt P46734)
AKT1 (human) = AKT1 (human) (UniProt P31749)
PRKCQ (human) = PRKCQ (human) (UniProt Q04759)
GRK1 (human) = GRK1 (human) (UniProt Q15835)
Chain of GRK1 (human) (Q15835 whole entry, looked up): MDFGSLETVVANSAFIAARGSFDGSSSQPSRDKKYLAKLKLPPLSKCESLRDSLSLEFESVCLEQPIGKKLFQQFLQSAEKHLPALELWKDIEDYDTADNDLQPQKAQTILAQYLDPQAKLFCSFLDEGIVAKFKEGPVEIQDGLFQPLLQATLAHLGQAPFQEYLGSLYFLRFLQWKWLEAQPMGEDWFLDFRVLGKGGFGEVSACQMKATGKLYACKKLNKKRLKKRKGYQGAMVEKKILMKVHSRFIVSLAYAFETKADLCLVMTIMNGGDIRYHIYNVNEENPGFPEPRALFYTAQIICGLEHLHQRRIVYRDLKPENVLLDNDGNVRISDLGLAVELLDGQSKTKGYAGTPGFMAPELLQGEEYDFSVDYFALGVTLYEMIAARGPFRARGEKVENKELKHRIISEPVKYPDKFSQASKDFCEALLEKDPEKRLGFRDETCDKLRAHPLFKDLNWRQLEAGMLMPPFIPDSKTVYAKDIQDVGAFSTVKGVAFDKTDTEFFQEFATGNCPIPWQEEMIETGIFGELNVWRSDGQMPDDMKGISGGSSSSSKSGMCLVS

MAPK15 (human) = MAPK15 (human) (UniProt Q8TD08)
Chain of MAPK15 (human) (Q8TD08 whole entry, looked up): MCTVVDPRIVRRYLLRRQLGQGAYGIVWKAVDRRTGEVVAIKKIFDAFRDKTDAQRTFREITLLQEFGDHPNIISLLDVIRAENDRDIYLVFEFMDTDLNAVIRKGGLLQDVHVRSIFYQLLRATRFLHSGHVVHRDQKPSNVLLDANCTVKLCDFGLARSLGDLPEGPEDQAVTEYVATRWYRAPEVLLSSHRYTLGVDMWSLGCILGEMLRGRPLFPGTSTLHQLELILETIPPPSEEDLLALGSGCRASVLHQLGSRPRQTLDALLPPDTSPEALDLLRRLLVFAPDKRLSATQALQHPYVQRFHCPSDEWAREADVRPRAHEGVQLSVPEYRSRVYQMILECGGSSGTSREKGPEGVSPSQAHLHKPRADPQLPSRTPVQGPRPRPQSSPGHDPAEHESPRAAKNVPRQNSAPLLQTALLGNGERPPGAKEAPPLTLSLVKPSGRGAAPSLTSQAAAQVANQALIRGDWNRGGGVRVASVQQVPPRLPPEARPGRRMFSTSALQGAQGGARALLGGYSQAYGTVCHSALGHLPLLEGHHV

STK25 (human) = STK25 (human) (UniProt O00506)
PIK3C2G (human) = PIK3C2G (human) (UniProt O75747)
OXSR1 (human) = OXSR1 (human) (UniProt O95747)
Chain of OXSR1 (human) (O95747 whole entry, looked up): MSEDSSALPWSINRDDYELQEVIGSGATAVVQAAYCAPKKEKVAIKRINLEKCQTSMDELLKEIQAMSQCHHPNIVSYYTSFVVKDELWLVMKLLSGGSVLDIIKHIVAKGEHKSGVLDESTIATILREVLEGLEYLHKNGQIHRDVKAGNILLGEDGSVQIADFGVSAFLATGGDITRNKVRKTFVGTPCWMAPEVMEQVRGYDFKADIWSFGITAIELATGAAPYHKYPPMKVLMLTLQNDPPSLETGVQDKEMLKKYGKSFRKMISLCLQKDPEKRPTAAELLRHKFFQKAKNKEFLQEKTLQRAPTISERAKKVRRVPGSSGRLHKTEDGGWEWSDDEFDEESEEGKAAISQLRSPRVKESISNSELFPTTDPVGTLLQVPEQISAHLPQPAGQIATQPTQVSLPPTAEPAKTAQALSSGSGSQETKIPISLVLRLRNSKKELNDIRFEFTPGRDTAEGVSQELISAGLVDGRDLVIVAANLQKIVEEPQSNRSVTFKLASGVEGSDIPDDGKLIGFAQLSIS

MAPK8 (human) = MAPK8 (human) (UniProt P45983)
CDK15 (human) = CDK15 (human) (UniProt Q96Q40)
SRPK1 (human) = SRPK1 (human) (UniProt Q96SB4)
MAPK14 (human) = MAPK14 (human) (UniProt Q16539)
SLK (human) = SLK (human) (UniProt Q9H2G2)
MAP2K7 (human) = MAP2K7 (human) (UniProt O14733)
SRPK3 (human) = SRPK3 (human) (UniProt Q9UPE1)

Chain of PKN1 (human) (Q16512 whole entry, looked up): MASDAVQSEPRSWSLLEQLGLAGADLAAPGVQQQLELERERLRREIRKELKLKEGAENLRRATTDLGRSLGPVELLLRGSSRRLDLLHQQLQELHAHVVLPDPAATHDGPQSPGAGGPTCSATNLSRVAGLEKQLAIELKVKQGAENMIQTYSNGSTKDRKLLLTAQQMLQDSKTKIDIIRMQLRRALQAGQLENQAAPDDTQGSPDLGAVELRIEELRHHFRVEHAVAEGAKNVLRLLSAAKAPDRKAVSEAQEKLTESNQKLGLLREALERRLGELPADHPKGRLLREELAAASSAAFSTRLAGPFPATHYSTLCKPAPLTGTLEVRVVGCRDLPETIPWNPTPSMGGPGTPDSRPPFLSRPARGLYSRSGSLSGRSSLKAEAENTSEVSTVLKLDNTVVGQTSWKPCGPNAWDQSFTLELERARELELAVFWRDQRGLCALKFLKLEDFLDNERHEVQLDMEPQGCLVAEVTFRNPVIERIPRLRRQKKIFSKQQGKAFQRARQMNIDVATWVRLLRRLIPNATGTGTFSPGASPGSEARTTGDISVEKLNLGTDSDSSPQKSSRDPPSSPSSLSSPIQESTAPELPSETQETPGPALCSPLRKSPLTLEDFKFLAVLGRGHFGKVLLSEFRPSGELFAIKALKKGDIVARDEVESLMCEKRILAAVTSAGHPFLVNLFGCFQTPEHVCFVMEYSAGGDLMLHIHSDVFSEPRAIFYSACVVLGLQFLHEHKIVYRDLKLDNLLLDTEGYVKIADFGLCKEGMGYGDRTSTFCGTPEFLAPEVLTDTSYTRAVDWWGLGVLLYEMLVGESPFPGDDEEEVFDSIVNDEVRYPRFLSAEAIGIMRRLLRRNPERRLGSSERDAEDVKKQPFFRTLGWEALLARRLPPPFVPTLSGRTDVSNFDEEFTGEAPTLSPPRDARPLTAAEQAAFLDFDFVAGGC

| SMILES | kinase still bound, per cent of control (RIPK2 (human)) [%] | kinase still bound, per cent of control (MST1R (human)) [%] | kinase still bound, per cent of control (MAPK11 (human)) [%] | kinase still bound, per cent of control (EPHA1 (human)) [%] | kinase still bound, per cent of control (PDPK1 (human)) [%] | kinase still bound, per cent of control (RPS6KA3 KD1 (human)) [%] | kinase still bound, per cent of control (PKN1 (human)) [%] | kinase still bound, per cent of control (WEE2 (human)) [%] | kinase still bound, per cent of control (MAP2K6 (human)) [%] | kinase still bound, per cent of control (EPHB6 (human)) [%] | kinase still bound, per cent of control (MAP3K1 (human)) [%] | kinase still bound, per cent of control (PIK3CA (human)) [%] | kinase still bound, per cent of control (RAF1 (human)) [%] | kinase still bound, per cent of control (PHKG2 (human)) [%] | kinase still bound, per cent of control (PRKX (human)) [%] | kinase still bound, per cent of control (MUSK (human)) [%] | kinase still bound, per cent of control (DYRK1B (human)) [%] | kinase still bound, per cent of control (CDC42BPB (human)) [%] | kinase still bound, per cent of control (ULK3 (human)) [%] | kinase still bound, per cent of control (AKT3 (human)) [%] | other results |
| --- | --- | --- | --- | --- | --- | --- | --- | --- | --- | --- | --- | --- | --- | --- | --- | --- | --- | --- | --- | --- | --- |
| CNC(=O)Nc1ccc(-c2nc(N3CC4CCC(C3)O4)c3cnn(C4CCC5(CC4)OCCO5)c3n2)cc1 | 71 | 100 | 100 | 81 | 76 | 100 | 100 | 100 | 95 | 83 | 58 | 16 | 100 | 96 | 100 | 92 | 100 | 100 | 92 | 86 | kinase still bound, per cent of control (RPS6KA5 KD2 (human)): 90%; kinase still bound, per cent of control (CDK11B (human)): 100%; kinase still bound, per cent of control (CDK13 (human)): 84%; kinase still bound, per cent of control (ACVR1B (human)): 100%; kinase still bound, per cent of control [1]: 14%; kinase still bound, per cent of control (MAP2K3 (human)): 89%; kinase still bound, per cent of control (AKT1 (human)): 81%; kinase still bound, per cent of control (PRKCQ (human)): 100%; kinase still bound, per cent of control (GRK1 (human)): 100%; kinase still bound, per cent of control (MAPK15 (human)): 25%; kinase still bound, per cent of control (STK25 (human)): 91%; kinase still bound, per cent of control (PIK3C2G (human)): 22%; kinase still bound, per cent of control (OXSR1 (human)): 100%; kinase still bound, per cent of control (MAPK8 (human)): 91%; kinase still bound, per cent of control (CDK15 (human)): 100%; kinase still bound, per cent of control (SRPK1 (human)): 100%; kinase still bound, per cent of control (MAPK14 (human)): 100%; kinase still bound, per cent of control (SLK (human)): 100%; kinase still bound, per cent of control (MAP2K7 (human)): 100%; kinase still bound, per cent of control (SRPK3 (human)): 100% |
| O=c1[nH]c2ccccc2n1C1CCN(Cc2ccc(-c3nc4cc5[nH]cnc5cc4nc3-c3ccccc3)cc2)CC1 | 64 | 100 | 95 | 100 | 93 | 67 | 100 | 96 | 100 | 69 | 80 | 77 | 99 | 100 | 100 | 100 | 88 | 83 | 80 | 100 | kinase still bound, per cent of control (RPS6KA5 KD2 (human)): 99%; kinase still bound, per cent of control (CDK11B (human)): 97%; kinase still bound, per cent of control (CDK13 (human)): 98%; kinase still bound, per cent of control (ACVR1B (human)): 100%; kinase still bound, per cent of control [1]: 58%; kinase still bound, per cent of control (MAP2K3 (human)): 100%; kinase still bound, per cent of control (AKT1 (human)): 77%; kinase still bound, per cent of control (PRKCQ (human)): 94%; kinase still bound, per cent of control (GRK1 (human)): 100%; kinase still bound, per cent of control (MAPK15 (human)): 100%; kinase still bound, per cent of control (STK25 (human)): 97%; kinase still bound, per cent of control (PIK3C2G (human)): 75%; kinase still bound, per cent of control (OXSR1 (human)): 81%; kinase still bound, per cent of control (MAPK8 (human)): 79%; kinase still bound, per cent of control (CDK15 (human)): 76%; kinase still bound, per cent of control (SRPK1 (human)): 99%; kinase still bound, per cent of control (MAPK14 (human)): 88%; kinase still bound, per cent of control (SLK (human)): 59%; kinase still bound, per cent of control (MAP2K7 (human)): 80%; kinase still bound, per cent of control (SRPK3 (human)): 87% |
| C=CC(=O)Nc1ccc(C(=O)c2sc(Nc3ccc(N4CCN(C)CC4)cc3OC)nc2N)cc1 | 100 | 100 | 4.1 | 100 | 100 | 9.6 | 97 | 100 | 96 | 64 | 100 | 95 | 97 | 3 | 99 | 100 | 2.6 | 100 | 35 | 73 | kinase still bound, per cent of control (RPS6KA5 KD2 (human)): 7%; kinase still bound, per cent of control (CDK11B (human)): 89%; kinase still bound, per cent of control (CDK13 (human)): 100%; kinase still bound, per cent of control (ACVR1B (human)): 100%; kinase still bound, per cent of control [1]: 100%; kinase still bound, per cent of control (MAP2K3 (human)): 69%; kinase still bound, per cent of control (AKT1 (human)): 100%; kinase still bound, per cent of control (PRKCQ (human)): 93%; kinase still bound, per cent of control (GRK1 (human)): 100%; kinase still bound, per cent of control (MAPK15 (human)): 75%; kinase still bound, per cent of control (STK25 (human)): 100%; kinase still bound, per cent of control (PIK3C2G (human)): 100%; kinase still bound, per cent of control (OXSR1 (human)): 10%; kinase still bound, per cent of control (MAPK8 (human)): 4.2%; kinase still bound, per cent of control (CDK15 (human)): 87%; kinase still bound, per cent of control (SRPK1 (human)): 71%; kinase still bound, per cent of control (MAPK14 (human)): 2.7%; kinase still bound, per cent of control (SLK (human)): 32%; kinase still bound, per cent of control (MAP2K7 (human)): 93%; kinase still bound, per cent of control (SRPK3 (human)): 54% |

Source: the kinase profiling compilation of Christmann-Franck et al. (2016)
